Assay results published in patent US20260097111A1, “ETHER LIPIDS FOR HYPERACTIVATION OF MAMMALIAN DENDRITIC CELLS” (priority 2022, published 2026).
Entries after “also recorded” stand apart in the source; their conditions may differ.

Assays:
[1] = test system: human monocyte-derived dendritic cells (moDCs); assay: IL-1β secretion by human moDCs treated with lipid and R848; assay type: cell-based; settings: for hyperactivation of human dendritic cells: 41.25 μM lipid with R848 (Compound 1 also 20.6 μM); for IL-1β secretion / IL-1β secretion, dependence on the NLRP3 inflammasome: human moDCs; for IL-1β secretion, dependence on the NLRP3 inflammasome: R848 + lipid with or without MCC950, one day, FIG. 3B
Method: (§1) Human monocytes were isolated from Leukopaks purchased from Miltenyi using the StraightFrom Leukopak CD14 microbead kit (Miltenyi). Isolations were completed following manufacturer's instructions. Monocytes were then aliquoted and frozen in fetal bovine serum containing 10% dimethyl sulfoxide. For studies with monocyte-derived dendritic cell (moDC) cultures, monocytes were thawed and cultured in RPMI medium containing 10% FBS, 50 units/mL penicillin, […] streptomycin, 2 mM L-glutamine, 1 mM sodium pyruvate, […] beta-mercaptoethanol, 10 mM HEPES, and Gibco MEM non-essential amino acids (R10 media). To differentiate monocytes into moDCs, recombinant human GM-CSF (50 ng/mL) and IL-4 (25 ng/mL) were added to R10 media. Cells were cultured for 6 days with GM-CSF and IL-4, with an additional cell feeding with R10 containing GM-CSF and IL-4 on day 3.
Six days after differentiation, moDC were collected and counted. Cells were plated into 96-well flat-bottom plates at 1×10^5 cells/well. Cells were treated with or without 1 μg/mL R848 (final) and with or without a hyperactivating lipid (or vehicle control). In some experiments, MCC950, an inhibitor of the NLRP3 inflammasome, was added at a final concentration of 10 uM. In some experiments, nigericin, which causes NLRP3 inflammasome activation and subsequent pyroptosis, was used as a positive control at 20 uM. Cells and stimuli totaled a final volume of […].
Lipid stocks were then further diluted in PBS to treat cells.
After an overnight incubation, cells and culture supernatant were used for downstream readouts. One hundred and fifty microliters of cell supernatant were collected. Viability was measured using the CellTiter-Glo assay (Promega) which measures ATP content from cells. Fifty microliters of CellTiter-Glo reagent were added to 50 μL of cells. Luminescence was quantified on a SpectraMax m5e plate reader using an integration time of 500 milliseconds. Viability data were set relative to control conditions where cells were treated with only R848. To measure IL-1β secretion, the human IL-1β Lumit kit (Promega) was used to assay cell culture supernatant. Culture supernatant samples were incubated with enzyme-linked antibodies in a 384-well plate for 1 hour before addition of luminescent substrate. Samples were measured for luminescence with an integration time of 500 milliseconds. IL-1β concentrations of samples was determined by interpolation from a standard curve using 4-parameter logistic regression analysis. Studies were performed on three different human donor samples, and each biological condition was tested in triplicate. Graphed data represent means from each donor.
as §1, with “Human moDC Production. Human” for “Human”, “(Miltenyi) according to the” for “(Miltenyi). Isolations were completed following”, “To differentiate” for “For studies with”, “pyruvate, and” for “pyruvate,”, “beta-mercaptoethanol” for “beta-mercaptoethanol, 10 mM HEPES, and Gibco MEM non-essential amino acids”
Hyperactivating Lipid Formulation—Compound 10. Lipid stocks were formulated at 200 μg/mL lipid in 5% Kolliphor P407 (KP407) in PBS.

human moDCs = assay: IL-6 secretion by human moDCs; assay type: cell-based; settings: human moDCs, 41.25 μM lipid with R848, compared with R848 + vehicle; FIG. 16
murine FLT3L-DCs = assay: Murine bone marrow-derived FLT3L-DCs hyperactivation; assay type: cell-based, mice; settings: FLT3L DCs; for IL-1β secretion: 1 μg/mL R848 2-3 hours alone or then 41 uM lipid, 48 hours, FIG. 4A; for viability: R848 then 41 uM lipid, FIG. 4B
Method: Murine bone marrow-derived FLT3L-DCs generation. Leg femur and tibia were removed from mice, cut with scissors, and flushed into sterile tubes. Bone marrow suspension was treated with ACK for 1 minute, then passed through a 40 um cell strainer. Cells were counted and resuspended in media consisting of complete IMDM containing 10% FBS, penicillin and streptomycin, and supplements of L-glutamine and sodium pyruvate (I10). […] For each experiment, 5 mice are used to collect BM and to generate DCs.
Lipid preparation. […] Lipid stocks were then further diluted in PBS to treat cells.
Murine bone marrow-derived FLT3L-DCs hyperactivation. BMDCs were harvested on day 8 post differentiation, washed with PBS, and re-plated in FLT3L-containing I10 at a concentration of 1×10^5 cells/mL. Cells were primed with or without 1 μg/mL R848 (final) then treated with or without a hyperactivating lipid (or vehicle control). Forty-eight hours post stimulation, supernatants were collected for cytokine measurement. Viability was measured using the CellTiter-Glo assay (Promega) which measures ATP content from cells. Fifty microliters of CellTiter-Glo reagent were added to 50 μL of cells. Luminescence was quantified on a SpectraMax m5e plate reader using an integration time of 500 milliseconds. Viability data were set relative to control conditions where cells were treated with R848. IL-1β and TNFα cytokine were measured using sandwich ELISAs (Invitrogen).

[2] = 41.25 μM lipid with R848, FIG. 17
[3] = 20.6 uM lipid with R848 and 10 uM MCC950, FIG. 14
[4] = 20.6 uM lipid with R848 vs vehicle, FIG. 14
[5] = 41.3 uM lipid with R848, FIG. 11
[6] = 24 hours, lipid in 4% KP407 with R848, FIG. 2B
[7] = 41.3 uM lipid with R848 and MCC950, FIG. 11

Compound | hyperactivation of human dendritic cells [1] | IL-1β secretion [1, 2] | IL-1β secretion [1, 5] | IL-1β secretion [1, 6] | IL-1β secretion, dependence on the NLRP3 inflammasome [1] | other results
CCCCCCCCCCCCCCCCCCCCCCOC[C@H](COP(=O)(O)O)OC(=O)NC [Compound 6, (R)-1-(docosyloxy)-3-(phosphonooxy)propan-2-yl methylcarbamate] | did not | induced minimal IL-1β secretion | – | – | – | IL-6 secretion (human moDCs): IL-6 was secreted at similar levels
CCCCCCCCCCCCCCCCCCOC[C@H](CO)OC(=O)NC [Compound 11, (S)-1-hydroxy-3-(octadecyloxy)propan-2-yl methylcarbamate] | hyperactivating lipids; also recorded: hyperactivated dendritic cells | significantly increased IL-1β secretion | – | – | – | hyperactivation of moDC (IL-1β secretion with maintained viability) ([1]; 20.6 uM lipid with R848): hyperactivating lipids; IL-1β secretion [1, 3]: inhibited; IL-1β secretion [1, 4]: significantly more IL-1β was detected
CCCCCCCCCCCCCCCCCCCCCCOC[C@H](CO)OC(=O)N(C)C [Compound 14, (S)-1-(docosyloxy)-3-hydroxypropan-2-yl dimethylcarbamate] | did not | induced minimal IL-1β secretion | – | – | – | –
CCCCCCCCCCCCCCCCCCCCCCOC[C@@H](O)CO [Compound 9, (S)-3-(docosyloxy)propane-1,2-diol] | – | – | robustly induced IL-113 secretion | produced significantly more IL-1β | depend on the NLRP3 inflammasome for IL-1β secretion | IL-1β secretion ([1]; 41.25 μM lipid with R848 vs vehicle control, FIG. 8): produced significantly more IL-1β
CCCCCCCCCCCCCCCCCCOC[C@@H](O)CO [Compound 12, (S)-3-(octadecyloxy)propane-1,2-diol] | hyperactivating lipids; also recorded: hyperactivated dendritic cells | significantly increased IL-1β secretion | – | – | – | hyperactivation of moDC (IL-1β secretion with maintained viability) ([1]; 20.6 uM lipid with R848): hyperactivating lipids; IL-1β secretion [1, 3]: inhibited; IL-1β secretion [1, 4]: significantly more IL-1β was detected
(R)-2-((dimethylcarbamoyl)oxy)-3-ethoxypropyl (2-(trimethylammonio)ethyl) phosphate-icosane (1/1) [Compound 16] | hyperactivating lipids; also recorded: hyperactivated dendritic cells | significantly increased IL-1β secretion | – | – | – | –
CCCCCCCCCCCCCCCCCCCCCCOC[C@H](CO)OC(=O)NC [Compound 8, (S)-1-(docosyloxy)-3-hydroxypropan-2-yl methylcarbamate] | – | – | induced secretion of IL-1β | produced significantly more IL-1β | depend on the NLRP3 inflammasome for IL-1β secretion | hyperactivation of moDC (IL-1β secretion with maintained viability) ([1]; 41.3 uM lipid with R848): hyperactivating lipids; IL-1β secretion [1, 7]: significantly reduced; IL-1β secretion (murine FLT3L-DCs): induced the lowest levels of IL-1β secretion; viability (murine FLT3L-DCs): viability was not compromised
(R)-3-(docosyloxy)-2-((methylcarbamoyl)oxy) propyl (2-(trimethylammonio) ethyl) phosphate [Compound 4] | hyperactivating lipids; also recorded: hyperactivated dendritic cells | significantly increased IL-1β secretion | – | – | – | –
CCCCCCCCCCCCCCCCCCOC[C@H](COP(=O)(O)O)OC(=O)NC [Compound 13, (R)-1-(octadecyloxy)-3-(phosphonooxy)propan-2-yl methylcarbamate] | hyperactivating lipids; also recorded: hyperactivated dendritic cells | significantly increased IL-1β secretion | – | – | – | –
CCCCCCCCCCCCCCCCCCCCCCOC[C@H](CO)OC(N)=O [Compound 7, (S)-1-(docosyloxy)-3-hydroxypropan-2-yl carbamate] | – | – | induced secretion of IL-1β | produced significantly more IL-1β | depend on the NLRP3 inflammasome for IL-1β secretion | hyperactivation of moDC (IL-1β secretion with maintained viability) ([1]; 41.3 uM lipid with R848): hyperactivating lipids; IL-1β secretion [1, 7]: significantly reduced; IL-1β secretion (murine FLT3L-DCs): induced the lowest levels of IL-1β secretion; viability (murine FLT3L-DCs): viability was not compromised
